Reference: EP1997826A2, “Synthetic ligands for immunoglobulins and pharmaceutical compositions containing them” (Tecnogen S.p.A., priority 2007, dated 2008)
Where two headings read alike, the source gives them in different places.

Tests used:
[1] = tested on: male rats of the CD1 species; type: in vivo, rat; settings: for dose inhibiting the inflammatory reaction completely: rat, intradermal; for Inhibition of skin reaction (%): intradermal with IgE ascitic fluid
Method: Passive cutaneous anaphylaxis in the rat was induced according to the procedure described by Ovary et al., 1952, Int. Arch. Allergy Appl. Immunol. 3:293-301. Rat ascitic fluid containing specific IgE against the ovalbumin antigen was injected in the shaved back of male rats of the CD1 species (Charles River, Italy). Ascitic fluid at different dilutions (from 20 to 20 000 times in PBS) was applied by intradermal injections at a volume of 50 µl, permitting the IgEs present in the ascitic fluid to bind to the FcεRs of the local mast cells, sensitizing them. On the next day, 1 mg of ovalbumin and the dye Evans Blue at a concentration of 2.0%, dissolved in 1 ml of PBS, were injected intravenously. After 30 minutes, the appearance, on the rats' backs, of stained areas in the dermis (wheals) with extent and intensity of staining proportional to the quantity of antigen-specific IgEs injected with the ascitic fluid, was observed. The experiment included a negative control, represented by the intradermal injection of 50 µl of PBS without ascitic fluid, and there was no corresponding appearance of staining. The rats were sacrificed and comparative evaluation of the dimensions and intensity of coloration of the wheals that developed was carried out by densitometric analysis of colour photographs of the animals taken with a single camera, a single film and in the same conditions of exposure times, lighting and orientation. The densitometric analyses were performed with the aid of the IMAGE PRO-PLUS software (Media Cybernetics, Inc.). On the basis of the results obtained in the IgE-FcεR linear binding assay (absence of inhibitors), selecting as reference point the value of dilution of the ascitic fluid at which the most intense inflammatory reaction was observed (the wheal with most intense staining, and consequently the maximum signal on the densitometer), an assay of inhibition of the allergic reaction was performed using peptide lB and the comparative peptide. For this purpose, 25 µl of ascitic fluid containing IgE suitably diluted was incubated with 25 µl of PBS containing different doses of the test compounds (0.025, 0.25, 2.5, 25, 250 and 2500 µg). A single rat was used for each compound. The back of each rat was shaved and was then subdivided into 8 sections by making marks to delimit the zones in which the injections were made. The mixture (50 µl) containing the ascitic fluid and the compounds at the various doses was administered intradermally at each selected point. An injection of 25 µl of ascitic fluid suitably diluted and incubated with 25 µl of PBS was used as the positive control, and 50 µl of PBS was used as the negative control. After 24 hours, the antigen was injected together with the Evans Blue dye as previously described and thirty minutes later, corresponding to the injection sites on the rats' backs, the appearance of coloured wheals was observed, with intensity and dimensions markedly less than in the zones in which higher concentrations of compounds had been applied.

[2] = tested on: immunoglobulin fraction of the raw serum; assay: affinity chromatography of raw rabbit serum on peptide immobilized on CH-Sepharose-4B; type: binding; settings: 50 mM Bis-Tris pH 6.5, elution with acetic acid 0.1 M pH 3.0, albumin eluted to the dead volume
Method: The peptide of formula (IB) prepared in Example 1 (10 mg) was dissolved in 5 ml of aqueous solution of sodium bicarbonate 0.1 M, NaCl 0.5 M, pH 8.5 and then added to 0.5 g of activated resin CH-Sepharose-4B (Amersham Biosciences, Uppsala, Sweden, Cat. No. 17-0490-01), a preactivated support for affinity chromatography for the direct coupling of peptides and proteins. The suspension was stirred for 24 hours and the extent of coupling was monitored by taking samples of the reaction mixture, at various times, followed by analysis by RP-HPLC.
Approximately 90-95% of the initial peptide is found to be bound covalently to the resin after 24 hours. The derivatized resin is incubated with 0.1 M Tris, pH 8.5 to block any sites of the resin that are still reactive, and is then packed in a glass column 100 x 0.6 cm I.D. with a variable piston (OMNIFIT, Cat. No. 006CC-06-10-FF).
For the purification of immunoglobulins from serum, the column was equilibrated with a buffer 50 mM Bis-Tris (Sigma, Cat. No. B9754), pH 6.5, to a flow of 1 ml/min, monitoring the eluent at 280 nm. Raw rabbit serum (Sigma, Cat, No. R9133) was loaded in the column and, after elution of the material that was not bound, the eluent was changed to acetic acid 0.1 M, pH 3.0, for elution of the adsorbed material. […]

[3] = tested on: immunoglobulins (IgG, IgM, IgA and IgE); assay: affinity chromatography of raw murine serum on peptide immobilized on CH-Sepharose-4B; type: binding; settings: Western Blot, albumin not retained
[4] = molar value printed in brackets

Row | Compound | dose inhibiting the inflammatory reaction completely [1] [µg] | dose inhibiting the inflammatory reaction completely [1, 4] | Inhibition of skin reaction (%) ([1]; Dose of Peptide 0.025 (µg/ml)) | Inhibition of skin reaction (%) ([1]; Dose of Peptide 0.25 (µg/ml)) | Inhibition of skin reaction (%) ([1]; Dose of Peptide 2.5 (µg/ml)) | Inhibition of skin reaction (%) ([1]; Dose of Peptide 25 (µg/ml)) | Inhibition of skin reaction (%) ([1]; Dose of Peptide 250 (µg/ml)) | Inhibition of skin reaction (%) ([1]; Dose of Peptide 2500 (µg/ml)) | activity greater than the activity of the comparative peptide ([1]; rat passive cutaneous anaphylaxis) | retention of immunoglobulins by the peptide column [2] | retention of immunoglobulins by the peptide column [3]
1 | C[C@H](O)[C@@H](NC(=O)[C@H](N)CCCNC(=N)N)C(=O)N[C@H](Cc1ccc(O)cc1)C(=O)NCCCC[C@H](NC(=O)[C@@H](Cc1ccc(O)cc1)NC(=O)[C@H](NC(=O)[C@H](N)CCCNC(=N)N)[C@H](C)O)C(=O)NCCCC[C@H](NC(=O)[C@H](CCCCNC(=O)[C@@H](Cc1ccc(O)cc1)NC(=O)[C@H](NC(=O)[C@H](N)CCCNC(=N)N)[C@H](C)O)NC(=O)[C@@H](Cc1ccc(O)cc1)NC(=O)[C@H](NC(=O)[C@H](N)CCCNC(=N)N)[C@H](C)O)C(=O)NCC(=O)O [Comparative peptide, (H-D-Arg-D-Thr-D-Tyr-)4-L-Lys2-L-Lys-Gly-OH, reference compound] | 25 | 11.6 nmol |  |  |  |  |  |  |  |  | 
2 | (H-L-Cys(p-MeOBzl)-D-Arg-D-Thr-D-Tyr)4-L-Lys2-L-Lys-L-Lys-OH [Peptide IB] | 2.5 | approx. 0.8 nmoles | 35 | 60 | 100 | 100 | 100 | 100 | approx. 15 times | able to retain the immunoglobulin fraction of the raw serum | able to retain the immunoglobulins (IgG, IgM, IgA and IgE)
